Reference: ChEMBL document CHEMBL1144044, “Synthesis and biological activity of quinolinone and dihydroquinolinone p38 MAP kinase inhibitors” (Bioorg Med Chem Lett, 2008)
pIC50: −log10 of the molar value.

How the values were obtained:
[1] = target: T1, Mitogen-activated protein kinase 14 (Homo sapiens, UniProt Q16539); assay: Inhibition of p38alpha; details: for pIC50: read-out: IC50
[2] = target: T1, Mitogen-activated protein kinase 14; assay: Inhibition of p38-alpha by whole blood assay
[3] = target: T1, Mitogen-activated protein kinase 14; assay: Inhibition of p38-alpha at 10 uM by whole blood assay
[4] = target: T1, Mitogen-activated protein kinase 14; assay: Inhibition of p38-alpha at 1250 nM
[5] = target: T1, Mitogen-activated protein kinase 14; assay: Inhibition of p38-alpha at 100 nM
[6] = target: T1, Mitogen-activated protein kinase 14; assay: Inhibition of p38-alpha at 1000 nM

T1 sequence (Q16539 whole entry): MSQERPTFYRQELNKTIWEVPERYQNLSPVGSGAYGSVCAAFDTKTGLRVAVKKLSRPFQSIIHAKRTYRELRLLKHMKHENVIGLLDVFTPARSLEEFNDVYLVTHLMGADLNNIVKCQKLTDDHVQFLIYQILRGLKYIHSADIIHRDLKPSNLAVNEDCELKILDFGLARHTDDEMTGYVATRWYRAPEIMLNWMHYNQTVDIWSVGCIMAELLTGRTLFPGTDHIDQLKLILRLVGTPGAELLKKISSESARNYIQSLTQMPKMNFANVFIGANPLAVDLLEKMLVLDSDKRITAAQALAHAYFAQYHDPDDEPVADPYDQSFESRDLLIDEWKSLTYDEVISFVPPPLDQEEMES

Row | Compound | pIC50 [1] | pIC50 [2] | also measured
1 | O=c1ccc2c(-c3cccnc3)cccc2n1-c1c(Cl)cccc1Cl | 6.34 |  | 
2 | O=c1ccc2c(-c3ccccc3Cl)cccc2n1-c1c(Cl)cccc1Cl | 8.22 |  | 
3 | O=c1ccc2c(-c3ccccn3)cccc2n1-c1c(Cl)cccc1Cl | 6.46 |  | 
4 | O=c1ccc2c(-c3ccccc3)cccc2n1-c1c(Cl)cccc1Cl | 7.87 |  | 
5 | O=C1C(O)Cc2c(-c3ccccc3Cl)cc(O)cc2N1c1c(Cl)cccc1Cl (stereo unspecified) | 8.40 |  | 
6 | O=c1ccc2c(-c3ccccc3Cl)cc(O)cc2n1-c1c(Cl)cccc1Cl | 9.15 |  | 
7 | COc1cc(-c2ccccc2Cl)c2c(c1)N(c1c(Cl)cccc1Cl)C(=O)C(O)C2 (stereo unspecified) | 8.05 |  | 
8 | COc1cc(-c2ccccc2Cl)c2cc(O)c(=O)n(-c3c(Cl)cccc3Cl)c2c1 | 7.55 |  | 
9 | COc1cc(-c2ccccc2Cl)c2ccc(=O)n(-c3c(Cl)cccc3Cl)c2c1 | 8.82 |  | inhibition [3]: 75%
10 | O=C1C(O)Cc2c(-c3ccccc3Cl)cccc2N1c1c(Cl)cccc1Cl (stereo unspecified) | 7.56 |  | 
11 | COc1cc(-c2ccccc2Cl)c2c(c1)N(c1c(Cl)cccc1Cl)C(=O)C(OC)C2 (stereo unspecified) |  |  | inhibition [4]: 63%
12 | [N-]=[N+]=NC1Cc2c(-c3ccccc3Cl)cccc2N(c2c(Cl)cccc2Cl)C1=O (stereo unspecified) |  |  | inhibition [5]: 15%
13 | O=c1c(O)cc2c(-c3ccccc3Cl)cc(O)cc2n1-c1c(Cl)cccc1Cl | 8.30 |  | 
14 | COC1Cc2c(-c3ccccc3Cl)cccc2N(c2c(Cl)cccc2Cl)C1=O (stereo unspecified) |  |  | IC50 [1]: Not Active
15 | COc1cc(-c2ccccc2Cl)c2cc(OC)c(=O)n(-c3c(Cl)cccc3Cl)c2c1 |  |  | inhibition [5]: 29%
16 | NC1Cc2c(-c3ccccc3Cl)cccc2N(c2c(Cl)cccc2Cl)C1=O (stereo unspecified) |  |  | IC50 [1]: Not Active
17 | O=c1ccc2c(-c3ccncc3)cccc2n1-c1c(Cl)cccc1Cl |  |  | inhibition [6]: 58%

Second part, led by results:

Row | pIC50 [1] | pIC50 [2] | Compound | also measured
18 | 9.52 | 7.10 | NCC(=O)NCCOc1cc(-c2ccccc2Cl)c2ccc(=O)n(-c3c(Cl)cccc3Cl)c2c1 | 
19 | 9.24 | 6.89 | NCCC(=O)NCCOc1cc(-c2ccccc2Cl)c2ccc(=O)n(-c3c(Cl)cccc3Cl)c2c1 | 
20 | 9.70 | 7.33 | C[C@@H](N)C(=O)NCCOc1cc(-c2ccccc2Cl)c2ccc(=O)n(-c3c(Cl)cccc3Cl)c2c1 | 
21 | 9.12 | 7.06 | O=C(NCCOc1cc(-c2ccccc2Cl)c2ccc(=O)n(-c3c(Cl)cccc3Cl)c2c1)[C@@H]1CCCN1 | 
22 | 9.05 | 7.14 | O=C(NCCOc1cc(-c2ccccc2Cl)c2ccc(=O)n(-c3c(Cl)cccc3Cl)c2c1)[C@H]1CCCN1 | 
23 | 9.92 | 7.55 | CC(C)(N)C(=O)NCCOc1cc(-c2ccccc2Cl)c2ccc(=O)n(-c3c(Cl)cccc3Cl)c2c1 | 
24 | 8.82 | 6.00 | NC1(C(=O)NCCOc2cc(-c3ccccc3Cl)c3ccc(=O)n(-c4c(Cl)cccc4Cl)c3c2)CC1 | 
25 | 9.80 | 7.49 | C[C@H](N)C(=O)NCCOc1cc(-c2ccccc2Cl)c2ccc(=O)n(-c3c(Cl)cccc3Cl)c2c1 | 
26 | 9.30 | 6.70 | NC(CO)C(=O)NCCOc1cc(-c2ccccc2Cl)c2ccc(=O)n(-c3c(Cl)cccc3Cl)c2c1 (stereo unspecified) | 
